Data taken from US20160109438A1, “PROTEASE-RESPONSIVE PEPTIDE BIOSENSORS AND METHODS FOR ANALYTE DETECTION” (AGENCY FOR SCIENCE, TECHNOLOGY AND RESEARCH, priority 2013, published 2016).

Columns and labels:
[1] = target: HA antibody (clone not named, FIG. 3B and FIG. 8B); test: cell-based or functional assay
[2] = target: Mdm2 N-terminal domain (Homo sapiens, UniProt Q00987); test: Protease exclusion sensor using fluorescence labeled internally quenched peptide (P1); settings: for response of the peptide sensor (rate of fluorescence increase): various concentrations, with enterokinase and Mdm2
Chain of Mdm2 N-terminal domain (Q00987 18-125): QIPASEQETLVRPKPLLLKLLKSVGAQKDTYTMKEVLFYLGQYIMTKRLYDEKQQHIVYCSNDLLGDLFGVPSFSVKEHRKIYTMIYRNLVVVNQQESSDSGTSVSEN

[3] = target: T1, Mdm2 (Homo sapiens, UniProt Q00987); test: Mdm2-enterokinase sensor assay; format: biochemical; settings: for substrate turnover (time course): sensor with enterokinase and mdm2, compared with DMSO only
T1 construct: derived from N-terminal domain (amino acids 18-125) of wild type Mdm2 protein; 10x His; made in house; host or cells: E. coli
T1 sequence (Q00987 18-125, species assumed): as the sequence (Q00987 18-125) above
Description: Nutlin was used as the positive control and a mutant p53 peptide, which cannot bind to Mdm2 was used as the negative control. The reaction was monitored using absorbance measurements at OD492 on a Perkin Elmer plate reader every 2 min. The signal was calculated from reading 5 minus reading 3. This assay was repeated three times and the average gradient value with standard error was reported.
The screening was divided into two steps. In the first step, the screening was carried out at the fixed compound concentration of […]. In the second step, a dose-response experiment of different hits found in the first step was conducted. […] The OD492 value of read number 3 was subtracted from that of read number 5 (OD492 readings were taken every 2 min) which was designated as signal. […] Fold change=Gradient of Hits (Reading 5−Reading 3)/Gradient of control (Reading 5−Reading 3)

[4] = system: HA antibody; test: Thrombin-HA protease exclusion sensor; format: biochemical
Excerpt: An HA-antibody binds to the HA epitope ([…]; SEQ ID NO:3). The Binding of an anti-HA antibody to its epitope would disallow protease, access to its recognition site due to steric obstruction by the higher affinity HA antibody. Addition of excess HA peptide should sequester the HA antibody, leading to renewed protease access to its recognition site, bringing about increased enzyme activity in response to the HA peptide. […] Starting from the left, the rate of substrate turnover is shown after 0 nM, 4 nM, 40 nM, 400 nM and 4000 nM addition of free HA peptide to the tested sensor.

[5] = system: HA antibody / HA epitope; test: HA-enterokinase sensor assay; format: biochemical; settings: 0 nM, 4 nM, 40 nM, 400 nM and 4000 nM; enterokinase and HA antibody present
[6] = target: T2, Mdm2 N-terminal domain (amino acids 18-125) of wild type Mdm2 protein engineered with 10x His tag (UniProt Q00987 18-125); test: Mdm2-enterokinase sensor assay, substrate turnover at OD492
T2 construct: range 18-125; expressed in E. coli; also called Mdm2 N-terminus; Mdm2 N terminus
T2 sequence (Q00987 18-125 limits assumed, change not shown): as the sequence (Q00987 18-125) above

Which HA peptide concentration with the highest substrate turnover (thrombin-HA protease exclusion sensor) [1] does the source give for free HA peptide here?
The HA peptide concentration with the highest substrate turnover (thrombin-HA protease exclusion sensor) was 400 nM.

Nutlin was tested. Which detectable concentrations ([2]; signal to noise ratio ~5-6x) did it give?
The detectable concentrations was “low micromolar”.

What about the “response of the peptide sensor (rate of fluorescence increase)” value [2] of the same molecule?
The value was “strong response”.

And the “substrate turnover (time course)” value [3]?
Its value is “substrate turnover increases substantially”.

And the “rate of turnover of substrate in response to various amounts” value ([3]; various amounts of competitor)?
The value was “increased turnover signal”.

Which “substrate turnover (time course)” value [3] does the source give for `O=c1[nH]cc(F)c(=O)[nH]1` [5 FU] here?
The value was “does not lead to increased turnover”.

“HA peptide: free peptide of the influenza hemagglutinin (HA) epitope, sequesters the HA antibody” was tested. Which “rate of substrate turnover” value ([4]; thrombin and HA antibody, varying amounts of free peptide) did it give?
The value was “increases with increasing amount”.

What about the “amount of peptide giving the highest substrate turnover” value ([4]; thrombin-HA protease exclusion sensor) of the same molecule?
The value was 400 nM.

What about the “substrate turnover after addition of free HA peptide” value [5] of the same molecule?
Its value is “concentration-dependent increase of substrate turnover”.

Which results are given for “ETASDLAKLAP (mutated p53 peptide) [mutant p53 peptide]”?
response of the peptide sensor (rate of fluorescence increase) [2]: not; substrate turnover (time course) [3]: does not lead to increased turnover

B1: mutant p53 peptide with critical residues mutated to alanine (ETASDLAKLAP) (peptide)
peptide: ETASDLAKLAP
notes: Synthetic negative control peptide; also called peptide C
Does B1 bind [6]?
Result: no binding
